Measured values as given in US20050096282A1, “Adeno-associated virus-delivered ribozyme compositions and methods for the treatment of retinal diseases” (priority 1997, published 2005).
“Also recorded” adds a separate entry of the source.

What was measured:
[1] = system: HREC; assay: cAMP content of intact HRECs; type: cell-based, human
Description: The cAMP content of intact HRECs following treatment with adenosine receptor agonists and antagonists was next examined. […] The effect of selective A1 and A2A adenosine receptor antagonists on NECA-induced accumulation of cAMP was also examined.

[2] = system: HREC; assay: BrdU incorporation (DNA synthesis) in HRECs; type: cell-based, human; conditions: for Proliferation BrdU Incorporation: HREC, agonists 10 μm, with NECA: CPX 20 nM, SCH 60 nM, XAC 10 μm, * p < 0.005 vs untreated
Experimental: (§1) The subtype of adenosine receptor (A2B) that mediates the proliferative effect of adenosine on HREC was determined by the following studies. […] In contrast, neither the A2A adenosine receptor agonist CGS21680 (2-p-(2-carboxyethyl) phenethylamino-5′-N-ethylcarboxamidoadenosine) at concentrations ranging from 10 nM to 10 μM, nor the A1 adenosine receptor agonist CPA (N^6-cyclopentyladenosine) at concentrations ranging from 10 nM to 10 μM increased BrdU incorporation by HRECs. […] In contrast, neither the selective A1 adenosine receptor antagonist CPX (8-cyclopentyl-1,3-dipropylxanthine) at 20 nM, nor the selective A2A adenosine receptor antagonist SCH58261 (5-amino-7-(2-phenylethyl)-2-(2-furyl)-pyrazolo(4,3-E)-1,2,4-trizolo(1,5-c) pyrimidine) at 60 nM attenuated the stimulatory effect of NECA on BrdU incorporation by HRECs. These findings indicate that the proliferative effects of NECA are mediated by the A2B adenosine receptor in HREC in culture (Table 3).

[3] = system: HREC; assay: HREC proliferation, cell count; type: cell-based, human; conditions: for Proliferation Cell Count: HREC, agonists 10 μm, with NECA: CPX 20 nM, SCH 60 nM, XAC, Enprofylline, JW V108 10 μm, * p < 0.005 vs untreated; for increase in HREC number: agonist alone, 48 hr
Experimental: as §1
The data for cell counts were consistent with those for BrdU incorporation. […] These compounds, like XAC, blocked the proliferative effects of NECA as measured by cell counts, supporting that the proliferative effects of NECA on HREC are mediated by the adenosine A2B receptor (Table 3).

[4] = system: HREC; assay: ERK/MAPK activation in HREC, Western blot; type: cell-based, human; conditions: for ERK activation by agonist / basal ERK activation: HREC; for ERK activation by agonist: agonist alone; for basal ERK activation: CGS 1-10 μM, H-89 30 min pretreatment; for effect on NECA-stimulated ERK activation: HREC pretreated with antagonist or inhibitor, then NECA
Experimental: HREC were serum-starved for 24 hr and pre-treated for 20 min with 1 U/mL adenosine deaminase prior to adding NECA. Activated ERK/MAPK was visualized on Western blots by enhanced chemiluminescence using EC10 monoclonal antibody;
HRECs were serum-starved for 24 hr and pre-treated with adenosine deaminase (ADA, 1 U/mL) for 20 min, incubated with the antagonists in the presence of ADA for 10 min. NECA (1 nM-10 μM, 10 min) was used to activate ERK.
In order to determine the intracellular signaling pathways activated by NECA that regulate ERK activity, we pretreated cells for 30 min with the ERK/MPAK kinase (MEK) inhibitor PD98059 or the PKA inhibitor H-89 and stimulated with NECA for 5 min.
Cells were pre-treated with both antagonists for 10 min and stimulated with increasing concentrations of NECA.

[5] = system: HREC; assay: VEGF mRNA in HREC after adenosine receptor agonists and antagonists; type: cell-based, human; conditions: agonists 10 μm, with NECA: CPX 20 nM, SCH 60 nM, XAC 10 μm, * p < 0.005 vs untreated
[6] = system: HREC; assay: VEGF protein in HREC after adenosine receptor agonists and antagonists; type: cell-based, human; conditions: agonists 10 μm, with NECA: CPX 20 nM, SCH 60 nM, XAC 10 μm, * p < 0.005 vs untreated
[7] = system: HREC; assay: HREC chemotaxis; type: cell-based, human
Description: The role of the A2B receptor was further characterized by examining the effects of the A2B antagonists JW V108 and Enprofylline on HREC chemotaxis, capillary tube formation and signal transduction pathways following stimulation with the adenosine analogue NECA.

[8] = system: HREC; assay: CREB phosphorylation at Ser133 in HREC, western blot; type: cell-based, human; conditions: HREC pretreated
Description: Phosphorylation of cAMP response element binding protein (CREB) at Ser^133 was examined following NECA stimulation in order to determine whether activation of cAMP pathways by NECA occurred independently of ERK activation. Cells were pretreated with PD98059 or H-89 and assayed for active CREB by western blot.

[9] = system: oxygen-induced retinal neovascularization; assay: Oxygen-induced retinal neovascularization in the neonatal mouse; type: in vivo; conditions: daily IP 30 mg/Kg body weight; vs uninjected control
Description: The potential efficacy of administering adenosine receptor antagonists to reduce retinal neovascularization brought on by ischemic insult was examined. In the neonatal mouse model of oxygen-induced retinopathy, 7-day-old mice are placed with their nursing dams in a 75% oxygen atmosphere for 5 days. Upon return to normal air, these mice develop retinal neovascularization, with peak development occurring 5 days after their return to normoxia. During this time, the animals receive by daily intaperitoneal injection a pharmacologically relevant concentration of adenosine receptor antagonist or vehicle (0.15% vol./vol. DMSO in normal saline) alone. Exemplary antagonists tested include XAC and 3-n-propylxanthine (Enprofylline), and JW V108, both at a concentration of 30 mg/Kg of body weight. […]
Individuals masked to the identity of treatment counted all cell nuclei above the inner limiting membrane for all 20 sections from each eye. […] The efficacy of treatment with a particular antagonist was then calculated as the fraction of total nuclei in antagonist or vehicle treatment over total nuclei in uninjected control. […] Whole retinas from these eyes were then flat-mounted for qualitative assessment of retinal neovascularization by fluorescence microscopy.

[10] = system: P347S rod opsin mRNA target UGGCCUCGGCCUA; assay: Ribozyme kinetic analysis, P347S human; type: biochemical; conditions: mean
Description: (§2) The chief characteristic of diabetic retinopathy is retinal neovascularization-the pathologic spread of blood vessels in the eye. Unique ribozymes have been developed which target the mRNAs that encode various proteins involved in this process. These include ribozymes directed at the wild-type mRNA for the adenosine A2b receptor, for IGF-I (insulin-like growth factor-1) receptor, for inducible nitric oxide synthase (iNOS), and for several integrins implicated in retinal neovascularization (e.g., alpha1, alpha3, alphaV). Also shown in Table 7 are the analyses of P347S ribozymes, that are specific for another mutant form of the rod opsin polypeptide.

[11] = system: IGF-I (insulin-like growth factor-1) receptor mRNA; assay: Ribozyme kinetic analysis, IGF1; type: biochemical; conditions: target GUACGUCUUCCAU
Description: as §2

CCNC(=O)[C@H]1O[C@@H](n2cnc3c(N)nc(NCCc4ccc(CCC(=O)O)cc4)nc32)[C@H](O)[C@@H]1O [CGS21680, 2-p-(2-carboxyethyl) phenethylamino-5′-N-ethylcarboxamidoadenosine]
CAMP Content ([1]; HREC, agonists 10 μm, with NECA: CPX 20 nM, SCH 60 nM, XAC 10 μm, * p < 0.005 vs untreated): 1.1 ± 1.02 fold change vs. untreated
effect on cAMP content of HREC ([1]; agonist alone, concentrations up to 100 μM): no significant effect
Proliferation BrdU Incorporation [2]: 1.0 ± 0.08 fold change vs. untreated
Proliferation Cell Count [3]: 1.1 ± 0.03 fold change vs. untreated
increase in HREC number [3]: neither CGS21680 nor CPA caused an increase in cell number
ERK activation by agonist [4]: did not activate ERK
basal ERK activation [4]: reduced the basal ERK levels
VEGF MRNA [5]: 0.8 ± 0.37 fold change vs. untreated
VEGF Protein [6]: 1.3 ± 0.20 fold change vs. untreated

CCNC(=O)[C@H]1O[C@@H](n2cnc3c(N)ncnc32)[C@H](O)[C@@H]1O [NECA]
EC50 ([1]; intact HRECs, read-out: EC50 for increase of cAMP content of HRECs): 24 µM
increase of BrdU incorporation (DNA synthesis) by HRECs ([2]; agonist alone, 48 hr, CGS21680 and CPA 10 nM to 10 μM): concentration-dependent increase of DNA synthesis
increase in HREC number [3]: concentration-dependent increase in HREC number
ERK activation by agonist [4]: dose-dependent increase in ERK activation; also recorded: transient activation of ERK
HREC chemotaxis induced by agonist [7]: induced HREC chemotaxis in a concentration-dependent manner

COc1cccc(-c2cc(=O)c3ccccc3o2)c1N [PD98059]
CREB activation (phosphorylation) following NECA stimulation [8]: did not alter CREB activation
effect on NECA-stimulated ERK activation [4]: abolished ERK activation

OC[C@H]1O[C@@H](n2cnc3c(NC4CCCC4)ncnc32)[C@H](O)[C@@H]1O [CPA, N^6-cyclopentyladenosine]
Proliferation BrdU Incorporation [2]: 0.8 ± 0.06 fold change vs. untreated
Proliferation Cell Count [3]: 0.9 ± 0.04 fold change vs. untreated
increase in HREC number [3]: neither CGS21680 nor CPA caused an increase in cell number
ERK activation by agonist [4]: capable of stimulating ERK
VEGF MRNA [5]: 1.1 ± 0.22 fold change vs. untreated
VEGF Protein [6]: 1.1 ± 0.27 fold change vs. untreated

CCCn1c(=O)[nH]c(=O)c2[nH]cnc21 [Enprofylline, 3-n-propylxanthine]
effect on NECA-stimulated ERK activation [4]: completely abolished ERK activation
inhibition of NECA-induced HREC chemotaxis [7]: inhibited
inhibition of oxygen-induced retinal neovascularization [9]: 70%

P347S human: ribozyme UAGGCCCUGAUGAGCCGCUUCGGCGGCAAAGGCCA (SEQ ID NO:103), P347S mutant rod opsin mRNA (listed as RNA, chemistry not given here)
Km [10]: 41.9 µM
Vmax [10]: 0.00135 nM/min
kcat [10]: 1.10E−04 min − 1

IGF1 Rz 2: ribozyme GGAACUGAUGAGCCGUUCGCGGCGAAACGUAC (SEQ ID NO:101), IGF-I receptor mRNA (RNA, backbone not given here)
Km [11]: 9.76 µM
Vmax [11]: 27.6 nM/min
kcat [11]: 18.4 min − 1

CCCn1c(=O)c2[nH]c(-c3ccc(OCC(=O)NCCN)cc3)nc2n(CCC)c1=O [XAC, xanthine amine congener]
inhibition of NECA-induced increase in cAMP content in HRECs ([1]; NECA 10 μM): completely blocked
attenuation of NECA-stimulated BrdU incorporation by HRECs ([2]; XAC 10 μM, CPX 20 nM, SCH58261 60 nM): completely prevented
inhibition of increase in cell number induced by NECA ([3]; 10 μM NECA): significantly inhibited
CREB activation (phosphorylation) following NECA stimulation [8]: blocked CREB phosphorylation
effect on NECA-stimulated ERK activation [4]: decreased ERK activation by high concentrations of NECA
inhibition of oxygen-induced retinal neovascularization [9]: 54%

O=S(=O)(NCCNC/C=C/c1ccc(Br)cc1)c1cccc2cnccc12 [Ribozyme H-89]
CREB activation (phosphorylation) following NECA stimulation [8]: blocked CREB phosphorylation
effect on NECA-stimulated ERK activation [4]: did not block
basal ERK activation [4]: increased basal ERK activation
